Source: the supplement of paper PMC10307832

Tests used:
Assay in all cases: relative viability (nuclei count vs DMSO), 5 days (fraction); higher = more cells survive
IPA-3 + Palbociclib = compound: C1=CC=C2C(=C1)C=CC(=C2SSC3=C(C=CC4=CC=CC=C43)O)O [IPA-3] + CC(=O)c1c(C)c2cnc(Nc3ccc(N4CCNCC4)cn3)nc2n(C2CCCC2)c1=O [Palbociclib] (partner 0.5 µM)
Summary of the method: (§1)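 After 5 days of treatment, lung cancer cells in 1536-well plates were fixed and stained in a single step (final 0.05% Triton X-100, 1% formaldehyde, 1 ug/ml Hoechst) and their nuclei counted on 4× images. Treatment had been applied by pin tool the day after seeding as one drug alone or as a fixed anchor-drug dose with five library-drug doses (not always all listed) in √10 steps. Relative viability is the nuclei count of treated wells divided by that of vehicle wells, and values are medians of duplicate plates.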

IPA-3 + Phenformin = compound: C1=CC=C2C(=C1)C=CC(=C2SSC3=C(C=CC4=CC=CC=C43)O)O [IPA-3] + N=C(N)NC(=N)NCCc1ccccc1 [Phenformin] (partner 250 µM)
Summary of the method: as §1

Doramapimod + Crizotinib = compound: Cc1ccc(-n2nc(C(C)(C)C)cc2NC(=O)Nc2ccc(OCCN3CCOCC3)c3ccccc23)cc1 [Doramapimod] + C[C@@H](Oc1cc(-c2cnn(C3CCNCC3)c2)cnc1N)c1c(Cl)ccc(F)c1Cl [Crizotinib] (partner 1 µM)
Summary of the method: as §1

RAF265 + Bortezomib = compound: Cn1c(Nc2ccc(C(F)(F)F)cc2)nc2cc(Oc3ccnc(-c4ncc(C(F)(F)F)[nH]4)c3)ccc21 [RAF265] + CC(C)C[C@H](NC(=O)[C@H](Cc1ccccc1)NC(=O)c1cnccn1)B(O)O [Bortezomib] (partner 0.002 µM)
Summary of the method: as §1

| Cell Line | relative viability (IPA-3 + Palbociclib; first compound 0.2 µM) | relative viability (IPA-3 + Palbociclib; first compound 0.6325 µM) | relative viability (IPA-3 + Palbociclib; first compound 2 µM) | relative viability (IPA-3 + Palbociclib; first compound 6.325 µM) | relative viability (IPA-3 + Palbociclib; first compound 20 µM) | relative viability (IPA-3 + Phenformin; first compound 0.2 µM) | relative viability (IPA-3 + Phenformin; first compound 0.6325 µM) | relative viability (IPA-3 + Phenformin; first compound 2 µM) | relative viability (IPA-3 + Phenformin; first compound 6.325 µM) | relative viability (IPA-3 + Phenformin; first compound 20 µM) | relative viability (Doramapimod + Crizotinib; first compound 0.02 µM) | relative viability (Doramapimod + Crizotinib; first compound 0.06325 µM) | relative viability (Doramapimod + Crizotinib; first compound 0.2 µM) | relative viability (Doramapimod + Crizotinib; first compound 0.6325 µM) | relative viability (Doramapimod + Crizotinib; first compound 2 µM) | relative viability (RAF265 + Bortezomib; first compound 0.01 µM) | relative viability (RAF265 + Bortezomib; first compound 0.03162 µM) | relative viability (RAF265 + Bortezomib; first compound 0.1 µM) | relative viability (RAF265 + Bortezomib; first compound 0.3162 µM) | relative viability (RAF265 + Bortezomib; first compound 1 µM) |
| --- | --- | --- | --- | --- | --- | --- | --- | --- | --- | --- | --- | --- | --- | --- | --- | --- | --- | --- | --- | --- |
| NCI-H522 | 1.16 | 1.14 | 0.893 | 1.18 | 1.31 | 0.648 | 0.657 | 0.582 | 0.697 | 0.76 | – | – | – | – | – | – | – | – | – | – |
| NCI-H1944 | 0.333 | 0.326 | 0.389 | 0.384 | 0.334 | 0.212 | 0.186 | 0.189 | 0.219 | 0.176 | 1.09 | 0.993 | 1.14 | 1.16 | 1.11 | – | – | – | – | – |
| NCI-H727 | 0.671 | 0.784 | 0.644 | 0.63 | 0.625 | 0.591 | 0.556 | 0.641 | 0.498 | 0.504 | 0.973 | 1.06 | 0.862 | 0.643 | 0.759 | 0.855 | 0.783 | 0.908 | 0.796 | 0.456 |
| NCI-H1650 | 0.472 | 0.314 | 0.328 | 0.311 | 0.327 | 0.564 | 0.346 | 0.424 | 0.512 | 0.364 | 0.969 | 1.02 | 1.13 | 1.04 | 1.02 | 0.224 | 0.222 | 0.224 | 0.207 | 0.216 |
| HCC-827 | 0.559 | 0.475 | 0.484 | 0.53 | 0.568 | 0.383 | 0.379 | 0.396 | 0.441 | 0.457 | 0.95 | 0.869 | 0.949 | 0.841 | 0.666 | 1.1 | 1.08 | 1.08 | – | 0.869 |
| HCC-366 | 0.479 | 0.382 | 0.374 | 0.378 | 0.474 | 0.715 | 0.584 | 0.636 | 0.567 | 0.752 | 0.612 | 0.513 | 0.487 | 0.451 | 0.398 | 1.11 | 1.02 | 1.06 | 1 | 0.985 |
| HARA | 0.255 | 0.24 | 0.255 | 0.27 | 0.235 | 0.653 | 0.427 | 0.432 | 0.442 | 0.564 | 1.27 | 0.966 | 0.965 | 1.08 | 0.992 | 1.12 | 1.1 | 1.1 | 0.809 | 0.801 |
| NCI-H322M | 0.48 | 0.452 | 0.433 | 0.525 | 0.514 | 0.821 | 0.749 | 0.835 | 0.89 | 0.96 | 0.899 | 0.949 | 1.02 | 1.02 | 0.924 | 1.3 | 1.32 | 1.14 | 0.55 | 0.258 |
